Laboratory results from patent publication US20110166223A1, “METHODS OF INHIBITING FGFR3 SIGNALING” (CEDARS-SINAI MEDICAL CENTER, priority 2008, published 2011).
Like-named read-outs stand apart in the source and are kept apart here.

Tests used:
[1] = test system: CCL3 and CCL4 expression in OPM2 cells; assay: Real-time RT-PCR of FGF2/FGFR3-induced CCL3 and CCL4 expression; format: cell-based; conditions: NF449 one hour before FGF2, FIG. 3b
Procedure: FIG. 3, in accordance with an embodiment herein, depicts 4,4′,4″,4′″-[carbonyl-bis[imino-5,1,3-benzenetriyl bis-{carbonylimino}]]tetrakis-{benzene-1,3-disulfonic acid} inhibits FGF2/FGFR3 signaling in MM cell lines OPM2 and KMS11. (a) KMS11 and OPM2 cells were serum-starved for 12 hours, treated with 4,4′,4″,4′″-[carbonyl-bis[imino-5,1,3-benzenetriyl bis-{carbonylimino}]]tetrakis-{benzene-1,3-disulfonic acid} for one hour before the treatment with FGF2 and the levels of ERK MAP kinase phosphorylation were determined by western blotting with the P-ERK1/2(Thr^202/Tyr^204) antibody. As a loading control, the membranes were reprobed with antibody recognizing ERK regardless of its phosphorylation. Note the FGF2-mediated ERK phosphorylation is inhibited by 4,4′,4″,4′″-[carbonyl-bis[imino-5,1,3-benzenetriyl bis-{carbonylimino}]]tetrakis-{benzene-1,3-disulfonic acid} in both KMS11 and OPM2 cells. (b) The OPM2 cells were serum starved for 12 hours, pre-treated with 4,4′,4″,4′″-[carbonyl-bis[imino-5,1,3-benzenetriyl bis-{carbonylimino}]]tetrakis-{benzene-1,3-disulfonic acid} for one hour before FGF2 treatment, and analyzed for CCL3 and CCL4 expression by real-time RT-PCR as described herein. The results are expressed as the fold difference relative to control (2^ddCt). Note the FGF2-mediated induction of CCL3 and CCL4 that is inhibited by 4,4′,4″,4′″-[carbonyl-bis[imino-5,1,3-benzenetriyl bis-{carbonylimino}]]tetrakis-{benzene-1,3-disulfonic acid}. The data represent two independent samples, each run as a technical duplicate, with the indicated range. The results are representative for three experiments.
Total RNA was isolated using the RNeasy Mini Kit (Qiagene, Valencia, Calif.) and poly-dT-primed cDNA was synthesized from 3 μg of RNA using Omniscript RT kit (Qiagene). Real-time RT-PCRs were carried out as described in detail elsewhere, using Dynamo SYBR Green qPCR chemistry (Finnzymes, Espoo, Finland). The PCR primers were the following (5′ to 3′; product size): CCL3 (SEQ. ID. NO.: 1 and SEQ. ID. NO.: 2), 192 bp; CCL4 (SEQ. ID, NO.: 3 and SEQ. ID. NO.: 4), 214 bp; ACTIN (SEQ. ID. NO.: 5 and SEQ. ID. NO.: 6), 245 bp. The results are expressed as fold difference relative to control (2^ddCt).
Since MM represents another area of pathological FGFR3 signaling in viva, the inventors evaluated whether NF449 inhibits FGFR3 signaling in KMS11 and OPM2 MM cell lines. OPM2 and KMS11 cells overexpress FGFR3 carrying the strongly activating mutations Y373C or K650E and thus serve as an in vitro model for oncogenic FGFR3 signaling in MM [14]. […] As the CCL3 ([…]) and CCL4 (MIP-1β) chemokines were previously identified as transcriptional targets of FGFR3 signaling in MM [16], the inventors determined the effect of NF449 on the FGF2/FGFR3-induced expression of CCL3 and CCL4.

[2] = test system: FGF2/FGFR3-mediated growth-arrest of rat chondrosarcoma (RCS) cells; conditions: for effect on FGF2/FGFR3-mediated growth arrest (in words): FIGS. 1, 4c
Description: In this assay, the FGF2/FGFR3-mediated growth-arrest of rat chondrosarcoma (RCS) cells is used as a reporter, thus allowing for elimination of toxic compounds as false-positive hits (Krejci, et al., Invest New Drugs 2007, 25: 391-395).
Rat chondrosarcoma chondrocytes (RCS), chinese hamster ovary (CHO) cells and MM cell lines OPM2 and KMS11 were propagated in DMEM, Opti-MEM or RPMI media (Gibco, Gaitherbsburg, Md.), supplemented with 10% fetal bovine serum (Atlanta Biological, Nordeross, Ga.) and antibiotics. […] For the RCS growth-arrest experiments shown at FIGS. 1 and 4c, 1×10^4 RCS chondrocytes were seeded in 24-well tissue culture plates (Costar, Cambridge, Mass.), treated as indicated for 72 hours, and counted. FGF2 was obtained from R&D Systems (Minneapolis, Minn.); C-natriuretic peptide, suramin, NF023 and NF449 were from Calbiochem (San Diego, Calif.).

[3] = listed as 4,4′,4″,4′″-[carbonyl-bis[imino-5,1,3-benzenetriyl bis-{carbonylimino}]]tetrakis

With `O=C(Nc1cc(C(=O)Nc2ccc(S(=O)(=O)O)cc2S(=O)(=O)O)cc(C(=O)Nc2ccc(S(=O)(=O)O)cc2S(=O)(=O)O)c1)Nc1cc(C(=O)Nc2ccc(S(=O)(=O)O)cc2S(=O)(=O)O)cc(C(=O)Nc2ccc(S(=O)(=O)O)cc2S(=O)(=O)O)c1` [NF449, 4,4′,4″,4′″-[carbonyl-bis[imino-5,1,3-benzenetriylbis-{carbonylimino}]]tetrakis-{benzene-1,3-disulfonic acid}] the “FGF2-mediated upregulation of CCL3 transcripts” value [1] was “significantly blocked”, the “FGF2-mediated upregulation of CCL4 transcripts” value [1] was “significantly blocked” and the “FGF2-mediated upregulation of CCL3 transcripts” value [1, 3] was “inhibited”. The “FGF2-mediated upregulation of CCL4 transcripts” value [1, 3] was “inhibited”, the “rescue (reversal) of the growth-arrest phenotype” value ([2]; 25 μM NF449, detailed cell-growth experiments, FIG. 1a, 72 hours) was ~70% and the “active concentration range in the RCS growth-arrest assay” value ([2]; FGF2 5 ng/ml, 72 hours, FIG. 1a) was 8 to 30 µM. For the same compound, the “rescue of the FGF2-mediated RCS growth-arrest” value ([2]; FIG. 1b, each agent alone, 72 hours) was ~50%, the “effect on FGF2/FGFR3-mediated growth arrest (in words)” value ([2]; RCS chondrocytes) was “more potently that CNP” and the “effect on FGF2/FGFR3-mediated growth arrest (in words)” value ([2]; RCS chondrocytes, listed as 4,4′,4″,4′″-[carbonyl-bis[imino-5,1,3-benzenetriyl bis-{carbonylimino}]]tetrakis) was “reversal of this phenotype”. For the same compound, the cell toxicity ([2]; RCS chondrocytes, throughout active concentration range (8-30 μM), listed as 4,4′,4″,4′″-[carbonyl-bis[imino-5,1,3-benzenetriyl bis-{carbonylimino}]]tetrakis) was “lack of significant” and the “concentration range inhibiting RCS growth arrest” value ([2]; comparison with SU5402) was 2 to 20 µM.
